Experiments:
TXA2 receptor = target: T1, TXA2 receptor (Cavia porcellus, UniProt A0A286Y4I8); assay: TXA2 antagonistic effects: U-46619-induced constriction of isolated guinea pig tracheal muscle strips; type: cell-based; details: U-46619 cumulative, 5 min pre-treatment, Van Rossum's method
T1 construct: the tracheae were excised and made into tracheal muscle strips; from tissue; host or cells: guinea pig tracheal muscle strips
T1 sequence (A0A286Y4I8 1-347): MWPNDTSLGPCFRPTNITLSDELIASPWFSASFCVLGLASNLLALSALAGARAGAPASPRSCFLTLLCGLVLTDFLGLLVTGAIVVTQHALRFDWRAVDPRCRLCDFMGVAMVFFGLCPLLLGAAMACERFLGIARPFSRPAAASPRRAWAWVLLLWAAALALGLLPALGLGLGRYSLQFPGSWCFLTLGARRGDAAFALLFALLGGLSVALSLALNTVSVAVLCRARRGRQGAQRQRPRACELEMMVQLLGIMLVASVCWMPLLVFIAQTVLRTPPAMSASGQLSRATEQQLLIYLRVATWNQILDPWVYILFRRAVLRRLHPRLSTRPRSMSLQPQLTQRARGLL
Procedure: Guinea pigs were bled to death, and the tracheae were excised and made into tracheal muscle strips in accordance with Takagi et al. The strips were suspended with a 1 g load in Magnus tubes filled with 2 ml Tyrode solution maintained at 37° C. under aeration with a 95% O2-5% CO2 gas mixture, and U-46619-induced constrictions were isotonically recorded.
(§1) After equilibration of the tonuses of the strips, constrictive responses to cumulative addition of 10^−10−10^7M U-46619 were observed. After the constrictive responses reached equilibrium, U-46619 was added again cumlatively 5 minutes after pre-treatment with a test substance to induce constriction. The pA2 values were calculated in accordance with Van Rossum's method.

LTD4 receptor = target: T2, LTD4 receptor (Cavia porcellus, UniProt Q2NNR5); assay: LTD4 antagonistic effects: LTD4-induced constriction of isolated guinea pig ileum preparations; type: cell-based; details: LTD4 0.05-3.5 ng/ml cumulative, 5 min pre-treatment, Van Rossum's method
T2 construct: the ilea were excised and made into ileum preparations; from tissue; host or cells: guinea pig ileum
T2 sequence (Q2NNR5 1-340): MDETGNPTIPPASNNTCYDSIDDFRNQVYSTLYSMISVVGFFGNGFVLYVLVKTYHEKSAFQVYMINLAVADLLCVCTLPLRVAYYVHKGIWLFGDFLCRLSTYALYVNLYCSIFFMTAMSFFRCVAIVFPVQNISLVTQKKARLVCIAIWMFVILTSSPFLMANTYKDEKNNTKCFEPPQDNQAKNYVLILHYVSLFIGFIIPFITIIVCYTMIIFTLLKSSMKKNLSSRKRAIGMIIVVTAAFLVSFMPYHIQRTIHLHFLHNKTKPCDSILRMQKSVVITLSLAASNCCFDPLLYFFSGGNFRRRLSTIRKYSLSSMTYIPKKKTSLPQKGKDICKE
Procedure: Guinea pigs were bled to death, and the ilea were excised and made into ileum preparations. The ileum preparations were suspended with a 1 g load in Magnus tubes filled with 2 ml Tyrode solution maintained at 37° C. under aeration with a 95% O2-5% CO2 gas mixture, and LTD4-induced constrictions were isotonically recorded.
as §1, with “ilea,” for “strips,”, “0.05-3.5 ng/ml LTD4” for “10^−10−10^7M U-46619”, “LTD4” for “U-46619”, “cumulatively” for “cumlatively”

[1] = test system: passively sensitized guinea pigs; assay: Antiasthmatic effects: immediate asthmatic response of passively sensitized guinea pigs (airway resistance); type: in vivo, guinea pig; details: 3 mg/kg i.v. 5 min before antigen inhalation (1% ovalbumin); airway resistance 5 min after inhalation
Procedure: The antiasthmatic effects were evaluated by the immediate asthmatic responses of passively sensitized guinea pigs. The previous day, the guinea pigs were sensitized by intravenous injections of a 10-fold diluted anti-DNP-ovalbumin guinea pig serum (guinea pig PCA titer; X1024) on the ears. The day of the test, after pre-treatment with pyrilamine (10 mg/kg i.p.), normal airway resitances were measured with a double flow plethysmograph in accordance with Pennock et al. The test substances (3 mg/kg) in DMSO were dissolved in 50% normal guinea pig serum-saline and intravenously injected from the ear vein 5 minutes before inhalation of the antigen. Immediate asthmatic responses were induced by 3 minutes of inhalational exposure to 1% ovalbumin in saline as the antigen from an ultrasonic neblizer, and the airway resistances were measured 5 minutes (4 to 6 minutes) after the inhalation. The results are expressed by the inhibition rates given by the following expression:
Inhibition rate (%)=(1−(A−B)/(C−D))×100
A: the airway resistance with a test substance after inhalation of the antigen,
B: the airway resistance with a test substance before inhalation of the antigen,
C: the airway resistance with a control after inhalation of the antigen,
D: the airway resistance with a control before inhalation of the antigen.

ICR mice = assay: Acute toxicity test in ICR mice; type: in vivo, mouse

Structure (SMILES) | TXA2 inhibitory effect (pA2) (TXA2 receptor) | LTD4 inhibitory effect (pA2) (LTD4 receptor) | Antiasthmatic effect Inhibition rate (%) [1] | Acute toxicity (mortality), intravenous (ICR mice; intravenously 100 mg/kg) | Acute toxicity (mortality), oral (ICR mice; orally 1000 mg/kg) | Kb (TXA2 receptor; read-out: TXA2 inhibitory effect (pA2) (converted)) | Kb (LTD4 receptor; read-out: LTD4 inhibitory effect (pA2) (converted))
CC(C)c1csc(COc2cccc(CN(CCCCNS(=O)(=O)c3ccc(Cl)cc3)S(=O)(=O)c3ccccc3C(=O)O)c2)n1 [compound 1, 2-{N-[4-(4-chlorobenzenesulfonylamino)butyl]-N-{3-[(4-isopropyl-2-thiazolyl)methoxy]benzyl}}sulfamoylbenzoic acid] | 8.30 | 9.73 | 53.5% | none of the mice died | none of the mice died | – | –
CC(C)c1csc(COc2cccc(CN(CCCCNS(=O)(=O)c3ccc(Cl)cc3)S(=O)(=O)c3ccccc3-c3nnn[nH]3)c2)n1 [compound 91, 5-{2-{N-[4-(4-chlorobenzenesulfonylamino)butyl]-N-{3-[(4-isopropyl-2-thiazolyl)methoxy]benzyl}}sulfamoylphenyl}-1H-tetrazole] | – | – | – | – | – | 18.6 nM | 0.891 nM

From patent publication US6376671B1, “2-sulfamoylbenzoic acid derivatives” (Kaken Pharmaceutical Co., Ltd., priority 1997, dated 2002)
